Assays:
[1] = system: Kasumi-1 (acute myeloid leukemia, KIT mutation Asn822Lys); assay: Calcein AM cytotoxicity assay; assay type: cell-based; conditions: Homo sapiens, 72 h; Kasumi-1; Calcein AM, three days; read-out: EC50 values (μM) Kasumi-1
Outline: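 Kasumi-1 cells were grown in RPMI-1640 + 15% FBS, other lines at 37° C., 5% CO2, and seeded the day before compound addition in triplicates at various concentrations. After 3 days, viability was read with Calcein AM (1 μg/ml final, 1 h) as live-cell fluorescence at ex 485/em 538 nm.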

[2] = system: H1703 (non-small cell lung carcinoma, PDGFRA amplification); assay: Calcein AM cytotoxicity assay; assay type: cell-based; conditions: Homo sapiens, NCI-H1703, 72 h, three days
Outline: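 Cells were seeded in 96-well plates and treated next day with compounds at various concentrations in triplicate for three days at 37 °C, 5% CO2. Viability read as calcein fluorescence after 1 h with Calcein AM at 1 μg/ml final.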

[3] = system: HL60; assay: Calcein AM cytotoxicity assay; assay type: cell-based; conditions: Homo sapiens, HL-60, 72 h, three days
[4] = molecular target: T1, CDK5/p35 (Homo sapiens, UniProt Q00535); assay: Kinase inhibition assay with [γ-33P]ATP; assay type: biochemical; conditions: histone H1, 0.15 μM ATP
T1 construct: purchased ProQinase GmbH
T1 sequence (Q00535 whole entry): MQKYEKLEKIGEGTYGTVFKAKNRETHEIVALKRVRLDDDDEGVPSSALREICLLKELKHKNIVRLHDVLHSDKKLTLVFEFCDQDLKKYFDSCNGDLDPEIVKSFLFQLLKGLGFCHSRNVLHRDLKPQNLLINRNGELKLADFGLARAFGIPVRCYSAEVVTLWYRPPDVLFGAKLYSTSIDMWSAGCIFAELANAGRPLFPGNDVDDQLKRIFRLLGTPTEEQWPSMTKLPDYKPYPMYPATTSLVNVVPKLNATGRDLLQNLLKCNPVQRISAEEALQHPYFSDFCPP
T1 sequence (Q15078 whole entry partner): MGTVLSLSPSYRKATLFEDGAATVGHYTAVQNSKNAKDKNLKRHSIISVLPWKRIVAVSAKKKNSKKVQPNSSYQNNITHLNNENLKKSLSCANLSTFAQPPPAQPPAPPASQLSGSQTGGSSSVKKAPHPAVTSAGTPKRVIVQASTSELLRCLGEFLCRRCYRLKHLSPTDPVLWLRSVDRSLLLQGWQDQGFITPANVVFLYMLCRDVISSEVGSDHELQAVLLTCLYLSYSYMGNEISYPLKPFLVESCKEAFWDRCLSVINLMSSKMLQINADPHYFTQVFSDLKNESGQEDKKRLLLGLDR
Outline: (§1)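 Radiometric [γ-33P]ATP assay in HEPES pH 7.5 with Mg2+/Mn2+: CDK1/Cyclin B (Sf9-expressed) and purchased CDK5/p35 with 1 mg/mL histone H1 at 15 and 0.15 μM ATP respectively; FLT3 WT and FLT3-ITD with AGLT substrate at 1 μM ATP. Reactions stopped with H3PO4, spotted onto phosphocellulose and washed.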

[5] = molecular target: T2, CDK1/Cyclin B (Homo sapiens, UniProt P06493); assay: Kinase inhibition assay with [γ-33P]ATP; assay type: biochemical; conditions: histone H1, 15 μM ATP
T2 construct: made in house; host or cells: Sf9 insect cells, baculoviral infection
T2 sequence (P06493 whole entry, species assumed): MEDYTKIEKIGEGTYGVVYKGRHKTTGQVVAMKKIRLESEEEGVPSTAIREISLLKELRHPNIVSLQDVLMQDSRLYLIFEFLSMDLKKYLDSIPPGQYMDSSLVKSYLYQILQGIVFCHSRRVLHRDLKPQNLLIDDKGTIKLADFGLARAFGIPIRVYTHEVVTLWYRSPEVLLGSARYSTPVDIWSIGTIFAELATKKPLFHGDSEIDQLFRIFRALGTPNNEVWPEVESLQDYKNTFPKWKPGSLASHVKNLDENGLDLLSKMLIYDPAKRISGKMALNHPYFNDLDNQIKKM
T2 sequence (P14635 whole entry partner, species assumed): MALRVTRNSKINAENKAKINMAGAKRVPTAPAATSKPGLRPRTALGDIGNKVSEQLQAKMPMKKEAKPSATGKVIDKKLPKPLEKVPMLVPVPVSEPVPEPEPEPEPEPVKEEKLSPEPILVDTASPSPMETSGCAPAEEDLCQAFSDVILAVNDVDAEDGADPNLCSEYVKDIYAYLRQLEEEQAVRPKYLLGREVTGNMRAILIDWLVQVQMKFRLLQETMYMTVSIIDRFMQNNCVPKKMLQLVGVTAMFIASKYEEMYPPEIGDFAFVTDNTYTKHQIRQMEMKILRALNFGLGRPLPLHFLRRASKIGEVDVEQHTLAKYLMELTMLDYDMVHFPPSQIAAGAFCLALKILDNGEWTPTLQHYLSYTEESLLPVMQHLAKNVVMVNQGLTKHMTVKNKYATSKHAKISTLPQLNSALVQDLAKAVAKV
Outline: as §1

SMILES	EC50 [1] [µM]	EC50 [2] [µM]	EC50 [3] [µM]	IC50 [4] [µM]	IC50 [5] [µM]
NC1CCC(Nc2nc(Nc3ccc(N4CCOCC4)cc3)c3ncn(C4CCCC4)c3n2)CC1 (stereo not drawn) [Compound 1]	0.944	0.189			
NC1CCC(Nc2nc(Nc3ccc(CN4CCNCC4)cc3)c3ncn(C4CCCC4)c3n2)CC1 (stereo not drawn) [Compound 2]	0.481		3.51	0.065	0.045
CN1CCN(C(=O)c2ccc(Nc3nc(NC4CCC(N)CC4)nc4c3ncn4C3CCCC3)cc2)CC1 (stereo not drawn) [Compound 3]	1.23		1.29	0.058	0.034
CN1CC2(C1)CN(c1ccc(Nc3nc(NC4CCC(O)CC4)nc4c3ncn4C3CCCC3)cc1)C2 (stereo not drawn) [Compound 7]				0.03	0.013
NCCNc1nc(Nc2ccc(CN3CCNCC3)cc2)c2ncn(C3CCCC3)c2n1 [Compound 14]	0.781		2.68	0.065	0.037
CN1CCN(C(=O)c2ccc(Nc3nc(NCCCCN)nc4c3ncn4C3CCCC3)cc2)CC1 [Compound 27]	0.637		0.989		
NCCCCNc1nc(Nc2ccc(N3CC4(COC4)C3)nc2)c2ncn(C3CCCC3)c2n1 [Compound 28]	0.839	0.214			
CN(C)CCNc1nc(Nc2ccc(CN3CCOCC3)nc2)c2ncn(C3CCCC3)c2n1 [Compound 172]	1.5	0.35			
NC1CCC(Nc2nc(Nc3ccc(N4CCCC4)cc3)c3ncn(C4CCCC4)c3n2)CC1 (stereo not drawn) [Compound 263]	0.569		3.93	0.359	0.082
NC1CCC(Nc2nc(Nc3ccc(CN4CCOCC4)cc3)c3ncn(C4CCCC4)c3n2)CC1 (stereo not drawn) [Compound 264]				0.034	
NCCCCNc1nc(Nc2ccc(N3CCOCC3)cc2)c2ncn(C3CCCC3)c2n1 [Compound 265]		0.482			
CCN1CCN(c2ccc(Nc3nc(NCCCCN)nc4c3ncn4C3CCCC3)cc2)CC1 [Compound 266]		0.978			
NC1CCC(Nc2nc(Nc3ccc(N4CC5(COC5)C4)cc3)c3ncn(C4CCCC4)c3n2)CC1 (stereo not drawn) [Compound 272]	0.773	0.412		0.059	0.094

Source: patent US11028087B2, “2,6-disubstituted-9-cyclopentyl-9H-purines, use thereof as medicaments, and pharmaceutical compositions” (UNIVERZITA PALACKEHO V OLOMOUCI, priority 2017, dated 2021)
